Source: ChEMBL document CHEMBL1125627 (J Med Chem, 1991)

Legend:
[1] = Serum protein binding ability was measured; format: ADME
[2] = Percentage ionization was measured; format: ADME

Structure (SMILES)	Binding [1] [%]	pKa (physchem)	Ionization [2] [%]
CC[C@H]1OC(=O)[C@H](C)[C@@H](O[C@H]2C[C@@](C)(OC)[C@@H](O)[C@H](C)O2)[C@H](C)[C@@H](O[C@@H]2O[C@H](C)C[C@H](N(C)C)[C@H]2O)[C@](C)(O)C[C@@H](C)C(=O)[C@H](C)[C@@H](O)[C@]1(C)O [ERYTHROMYCIN]	80	8.8	> 96
CC[C@H]1OC(=O)[C@H](C)[C@@H](O[C@H]2C[C@@](C)(OC)[C@@H](O)[C@H](C)O2)[C@H](C)[C@@H](O[C@@H]2O[C@H](C)C[C@H](N(C)C)[C@H]2O)[C@](C)(O)C[C@@H](C)/C(=N\OCOCCOC)[C@H](C)[C@@H](O)[C@]1(C)O [ROXITHROMYCIN]	95	9.2	> 96
